{"source": "patent US8465973B2", "about": "“Topical compositions containing phosphorylated polyphenols” (Estee Lauder Coordination Center N.V., priority 2004, dated 2013)", "key": {"[1]": {"test": "Visual (color) stability of a cosmetic formulation", "type": "physicochemical", "details": "for color of formulation: 0.1% resveratrol or 0.2% resveratrol^Pi in base formula", "experimental": "Three base formulas are prepared, the control containing no resveratrol, the other two formulas being identical to the control but for one containing 0.1% unmodified resveratrol, and the other containing 0.2% of phosphorylated resveratrol (Resveratrol^Pi).\nThe color of the control base is white, and with addition of the resveratrols, it takes on a light beige color. Each formulation is observed once a week for a period of four weeks to determine the presence of a color change (indicative of changing color stability), under three different environmental conditions: 50° C., 4° C., and room temperature (RT)."}, "[2]": {"tested_on": "extractable fraction of human SC D-squame tape strippings (acid phosphatase present on the skin)", "test": "Dephosphorylation of resveratrol^Pi by extractable fraction of stratum corneum D-squame tape strippings", "details": "resveratrol^Pi 0.22 mg/ml or 0.47 mM, FIG. 3; for correlation (r) of amount with incubation time: N=15", "experimental": "D-squame tape strippings were collected on the inner lower arm of one panelist. […] The extractable fraction was transferred to another vial and mixed with resveratrol^Pi stock-solution. The concentration of resveratrol^Pi during the incubation was 0.22 mg/ml or 0.47 mM. At various incubation time points a 25 μl aliquot of the incubation mixture was diluted in 25 μl 10 mM o-phosphoric acid and 50 μl of MeOH and injected onto the HPLC system."}, "[3]": {"test": "Water solubility of resveratrol and resveratrol triphosphate", "type": "physicochemical", "experimental": "The water solubility of resveratrol is tested at pH 7 in 1 mM potassium phosphate buffer at room temperature. Ten mg of resveratrol (M.W. 228.24) are suspended in 10 ml of buffer. This suspension, corresponding to a concentration of 1 g/l or 4.38 mM, is agitated for 24 hours in a rotary shaker at 25° C. in the dark. The sample is centrifuged at 14,000 rpm for 5 minutes and an OD of 6.26 is determined at 305 nm wavelength at which the ε mM of resveratrol has a value of 28.1. Assuming complete solubility of resveratrol, the OD that should have been obtained is 123.1 (4.38×28.1). With an observed OD of 6.26, the percentage of dissolved resveratrol is 5.1% (6.26×100/123.1) or […].\n(§1) In contrast, the solubility and stability of the resveratrol triphosphate tested under the same conditions, in water of different pH, in the range of 4 to 9, at room temperature."}, "[4]": {"tested_on": "acid phosphatase from wheat germ", "test": "Enzymatic dephosphorylation of resveratrol^Pi by acid phosphatase, HPLC analysis", "details": "resveratrol^Pi 1.6 mg/ml, acid phosphatase 0.056 U/ml, pH 5.5; FIG. 2", "experimental": "The experimental conditions for the HPLC analysis of resveratrol are shown below.\nPhosphorylated resveratrol was incubated in the presence of acid phosphatase from wheat germ (Sigma, P3627 lot 081K7071) in 0.147M (NH4)2SO4/0.81 mM MgCl2 pH 5.5. The concentration of resveratrol^Pi and acid phosphatase was 1.6 mg/ml and 0.056 U/ml respectively. Aliquots were taken at different time intervals and analysed by HPLC (conditions see above)."}, "[5]": {"test": "Stability of resveratrol triphosphate in solid and water solution form", "type": "physicochemical", "text": "as §1"}}}
{"compound": "Oc1ccc(/C=C/c2cc(O)cc(O)c2)cc1", "note": "[resveratrol]", "values": [{"measurement": "color of formulation", "setting": "[1]; 1 week, 4° C.", "result": "lt beige"}, {"measurement": "color of formulation", "setting": "[1]; 1 week, 50° C.", "result": "lt beige"}, {"measurement": "color of formulation", "setting": "[1]; 1 week, room temperature", "result": "lt beige"}, {"measurement": "color of formulation", "setting": "[1]; 2 weeks, 4° C.", "result": "lt beige"}, {"measurement": "color of formulation", "setting": "[1]; 2 weeks, 50° C.", "result": "lt beige"}, {"measurement": "color of formulation", "setting": "[1]; 2 weeks, room temperature", "result": "lt beige"}, {"measurement": "color of formulation", "setting": "[1]; 3 weeks, 4° C.", "result": "lt beige"}, {"measurement": "color of formulation", "setting": "[1]; 3 weeks, 50° C.", "result": "lt beige (vsl darker with sl top oxidation)"}, {"measurement": "color of formulation", "setting": "[1]; 3 weeks, room temperature", "result": "lt beige"}, {"measurement": "color of formulation", "setting": "[1]; 4 weeks, 4° C.", "result": "lt beige (sl lighter beige than RT)"}, {"measurement": "color of formulation", "setting": "[1]; 4 weeks, 50° C.", "result": "beige (sl darker than RT with top oxidation)"}, {"measurement": "color of formulation", "setting": "[1]; 4 weeks, room temperature", "result": "lt beige/beige"}, {"measurement": "correlation (r) of amount with incubation time", "setting": "[2]", "result": 0.99}, {"measurement": "solubility at 24 h", "setting": "[3]; 25 °C, pH 7, aqueous buffer, thermodynamic from solid", "result": 5.1, "unit": "µg/mL"}, {"measurement": "percentage of dissolved resveratrol", "setting": "[3]; pH 7, 1 mM potassium phosphate buffer, 1 g/l suspension, 24 hours, 25° C., OD at 305 nm", "result": 5.1, "unit": "%"}]}
{"compound": "resveratrol diphosphate", "values": [{"measurement": "incubation time at which the maximum amount is reached", "setting": "[4]", "result": "around 85 minutes"}]}
{"compound": "resveratrol triphosphate", "values": [{"measurement": "stability", "setting": "[5]", "result": "stable in both solid and water solution form for periods in excess of one year"}, {"measurement": "color development versus unmodified resveratrol", "setting": "[1]; at the end of four weeks", "result": "less color development than the unmodified resveratrol"}, {"measurement": "conversion on treatment with acid phosphatase (HPLC)", "setting": "[4]", "result": "decreased gradually"}, {"measurement": "correlation (r) of amount with incubation time", "setting": "[2]", "result": "−0.69"}, {"measurement": "conversion on incubation with extractable fraction of SC D-squame tape strippings (HPLC)", "setting": "[2]; pH 5.6", "result": "decreased gradually"}, {"measurement": "solubility", "setting": "[3]; water of different pH, range 4 to 9, room temperature", "result": "> 30", "unit": "% w/v"}]}
